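Test compounds were applied to cells in 96-well plates for 48 hours at 5 doses. At the GI50, growth is halved.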 Calls of active or inactive are those of the source. Cut-off read from the data, not from the text of the source: active = GI50 up to about 1.1 µM and inactive = higher.
Assays:
Assay in all cases: growth of human tumour cells (NCI), 48 h
BT-549 = system: BT-549
Hs-578T = system: Hs-578T
MCF7 = system: MCF7
MDA-N = system: MDA-N

Compound | GI50 (BT-549) | GI50 (Hs-578T) | GI50 (MCF7) | GI50 (MDA-N)
CC(=O)N(C)c1ccc(Nc2ccnc3ccc4nn(C)nc4c23)cc1 | 31.8 µM (inactive) | 17.3 µM (inactive) | 13.4 µM (inactive) | 36.1 µM (inactive)
CC(=NNC(=S)Nc1ccccc1C)c1cccc(C(C)=NNC(=S)Nc2ccccc2C)n1 | – | – | 65.2 µM (inactive) | > 100 µM (inactive)
CC(=O)/C(=C/NC(=S)Nc1ccc(Cl)c(Cl)c1)C(=O)Nc1ccccc1C | 25.5 µM (inactive) | – | 26.9 µM (inactive) | 25.3 µM (inactive)
COc1ccc(C2=C(OC(C)=O)c3cccn3-c3ccccc3S2)cc1 | – | – | 3.48 µM (inactive) | 0.34 µM (active)
OC1C2CN3CCN(C2)CC1(c1ccccc1)C3 (centres undefined) | > 100 µM (inactive) | > 100 µM (inactive) | > 100 µM (inactive) | > 100 µM (inactive)
Oc1ccc(/C=N/c2ccccc2O)cc1 | 67.8 µM (inactive) | 37.2 µM (inactive) | 27.4 µM (inactive) | 18.3 µM (inactive)
c1ccc(SC(Sc2ccccc2)c2ccc3c(c2)OCO3)cc1 | > 100 µM (inactive) | > 100 µM (inactive) | – | 88.9 µM (inactive)
COc1ccc2nc3c([N+](=O)[O-])ccc(NCCN(C)C)c3c(N)c2c1 | – | 2.62 µM (inactive) | 0.513 µM (active) | 1.73 µM (inactive)
O=S(=O)(N/N=C1\CC2CCC1C2)c1ccccc1 (centres undefined) | > 100 µM (inactive) | > 100 µM (inactive) | > 100 µM (inactive) | > 100 µM (inactive)
Cc1ccc2c(c1)C(=O)C1(C2)Cc2ccc(C)cc2C1=O | – | > 100 µM (inactive) | > 100 µM (inactive) | > 100 µM (inactive)
COc1cc(OC)cc(Oc2nc3ccc(C(F)(F)F)cc3nc2-c2ccccc2)c1 | > 100 µM (inactive) | > 100 µM (inactive) | > 100 µM (inactive) | > 100 µM (inactive)
CCCNC(=O)OCc1c(COC(=O)NCCC)c(-c2ccc(Cl)c(Cl)c2)n2c1CCC2 | 4.07 µM (inactive) | 6.56 µM (inactive) | 5.75 µM (inactive) | –
COc1c(CCl)cc(-c2cc(=O)c3ccccc3s2)cc1CCl | 36.6 µM (inactive) | 9.57 µM (inactive) | 1.91 µM (inactive) | 6.08 µM (inactive)
COc1ccc(/C=C/C(=N/NC(=O)N/N=C(/C=C/c2ccc(OC)cc2)C(C)(C)CN2CCCCC2)C(C)(C)CN2CCCCC2)cc1 | 1.98 µM (inactive) | 1.87 µM (inactive) | 2.35 µM (inactive) | 1.64 µM (inactive)
CC(C)(C)O/N=C/c1cc(NC(=S)c2ccsc2)ccc1Cl | 13.9 µM (inactive) | 23.3 µM (inactive) | 11.2 µM (inactive) | 15.2 µM (inactive)
N#Cc1nc(COCCOCc2ccc(F)cc2)oc1N | > 100 µM (inactive) | – | > 100 µM (inactive) | –
C/C(=N/NC(=S)Nc1ccc([N+](=O)[O-])cc1)c1cccc(/C(C)=N\NC(=S)Nc2ccc([N+](=O)[O-])cc2)n1 | 0.463 µM (active) | 3.9 µM (inactive) | 0.341 µM (active) | 2.35 µM (inactive)
COC(=O)CNS(=O)(=O)c1ccc(-c2c3nc(c(-c4ccc(S(=O)(=O)NCC(=O)OC)cc4)c4ccc([nH]4)c(-c4ccc(S(=O)(=O)NCC(=O)OC)cc4)c4nc(c(-c5ccc(S(=O)(=O)NCC(=O)OC)cc5)c5ccc2[nH]5)C=C4)C=C3)cc1 | > 100 µM (inactive) | > 100 µM (inactive) | > 100 µM (inactive) | > 100 µM (inactive)
c1ccc(-c2ccc(-c3ccc(C4=NCCN4)cc3)o2)cc1 | 6.28 µM (inactive) | – | 1.91 µM (inactive) | –
COc1ccc(N2C(=O)C(Cl)C2c2cc3cc(Br)ccc3nc2Cl)cc1 (centres undefined) | 4.46 µM (inactive) | 11.5 µM (inactive) | 4.82 µM (inactive) | 5.31 µM (inactive)
CC(C)(C)OC(=O)CC(NC(=O)OC(C)(C)C)C(=O)NC(C(=O)O)C(O)c1ccccc1 (centres undefined) | > 100 µM (inactive) | 70.8 µM (inactive) | 37.6 µM (inactive) | > 100 µM (inactive)

Compound | GI50 (BT-549) | GI50 (Hs-578T) | GI50 (MCF7) | GI50 (MDA-N)
CC(=O)Oc1cc(/C=C/c2ccc(O)cc2)cc(OC(C)=O)c1 | – | 58.5 µM (inactive) | 40 µM (inactive) | –
Cc1nnc2nc(-c3ccc(Cl)cc3Cl)cc(-c3ccc(Cl)cc3)n12 | > 100 µM (inactive) | > 100 µM (inactive) | 31 µM (inactive) | > 100 µM (inactive)
OC1(C(O)(c2ccc(-c3ccccc3)cc2)c2ccc(-c3ccccc3)cc2)CCCCC1 | > 100 µM (inactive) | > 100 µM (inactive) | 96.8 µM (inactive) | > 100 µM (inactive)
CC(NO)/C(=N/O)c1ccco1 (centres undefined) | > 10 µM (inactive) | – | > 10 µM (inactive) | > 10 µM (inactive)
O=C(CCc1cccc(O)c1)NCCCNC(=O)CCc1cccc(O)c1 | > 100 µM (inactive) | > 100 µM (inactive) | > 100 µM (inactive) | > 100 µM (inactive)
CO[C@H]1C[C@H](O[C@H]2CC[C@@]3(C)[C@H](CC[C@@H]4[C@@H]3CC[C@]3(C)[C@@H](C5=CC(=O)OC5)CC[C@]43O)C2)O[C@H](C)[C@H]1O | < 0.01 µM (active) | < 0.01 µM (active) | < 0.01 µM (active) | < 0.01 µM (active)
CCCNC(=O)NNC(=O)c1c[nH]c2nc(C)ccc2c1=O | > 100 µM (inactive) | > 100 µM (inactive) | > 100 µM (inactive) | > 100 µM (inactive)
O=S(=O)(O)c1cc(/N=N/c2c(O)ccc3ccccc23)cc2c(S(=O)(=O)O)cccc12 | > 100 µM (inactive) | > 100 µM (inactive) | > 100 µM (inactive) | –
Cc1cc2nc3c(C#N)c4c(c(Nc5ccc(Cl)cc5)n3c2cc1C)CCC4 | 23.8 µM (inactive) | – | – | –
COc1cc(C/C=C/c2ccccc2)c(OC)cc1O [VIOLASTYRENE] | 24.7 µM (inactive) | 30.8 µM (inactive) | – | 17.9 µM (inactive)
O=C1/C(=C\c2cccc(Oc3ccccc3)c2)SC(c2ccccc2)N1c1cc(Cl)ccc1Cl (centres undefined) | 36.8 µM (inactive) | 24.4 µM (inactive) | 25.9 µM (inactive) | 18.4 µM (inactive)
COc1ccc(C(SCCO)(c2ccccc2)c2ccc(OC)cc2)cc1 | 19.5 µM (inactive) | 11.1 µM (inactive) | 5.36 µM (inactive) | 5.32 µM (inactive)
Cc1nc2ccc(F)cc2c2c1CCO2 | 80 µM (inactive) | > 100 µM (inactive) | – | 27.7 µM (inactive)
CN(c1ccc(Cl)cc1)S(=O)(=O)c1ccc([N+](=O)[O-])cc1 | > 100 µM (inactive) | > 100 µM (inactive) | > 100 µM (inactive) | > 100 µM (inactive)
C/C=C(/C)C(=O)OC1CC(C)[C@H]2CC(=O)C(C)=C2CC1C(C)(C)OC(C)=O (some centres undefined) | 31 µM (inactive) | 35.4 µM (inactive) | 40.6 µM (inactive) | 34.2 µM (inactive)
C/C(Cl)=N\OC(=O)Nc1ccc(C)cc1 | – | 28.6 µM (inactive) | 11.9 µM (inactive) | 16.3 µM (inactive)
CCOC(=O)c1c(-c2ccc(OC)cc2)c(C#N)c(=S)n(C2OC(COC(C)=O)C(OC(C)=O)C(OC(C)=O)C2OC(C)=O)c1C (centres undefined) | – | – | > 100 µM (inactive) | > 100 µM (inactive)
CCCCCCCCCCCCCCCCCc1nc(Cl)nc(Cl)c1Cl | – | > 100 µM (inactive) | > 100 µM (inactive) | > 100 µM (inactive)
Cc1cc(C)n(-c2nc3ccccc3c(=O)n2-c2ccccc2)n1 | – | – | > 100 µM (inactive) | > 100 µM (inactive)
CSS(C)(=O)=O | – | 49.2 µM (inactive) | 26.7 µM (inactive) | –
